Measurements from the NIST ThermoML archive (doi:10.1021/je700270d).
Numbers after ± are expanded uncertainties.

Key:
[1] = activity coefficient (dimensionless); of the first substance listed, at infinite dilution; xn = mol fraction of the nth substance listed; conditions: Liquid, x1 = 0
[2] = Liquid, Closed cell (Static) method

Compound | activity coefficient ([1]; 250.06 K, Chromatography) | activity coefficient ([1]; 270.12 K, Chromatography) | activity coefficient ([1]; 289.97 K, Chromatography) | activity coefficient ([1]; 309.98 K, Chromatography) | activity coefficient ([1]; 329.97 K, Chromatography) | other results
CC(F)F [1,1-difluoroethane] + C1CCOCC1 | 1.57 ± 0.06 | 1.64 ± 0.07 | 1.67 ± 0.07 | 1.69 ± 0.07 | 1.66 ± 0.07 | 
C=CC=C [1,3-butadiene] + C1CCOCC1 | 0.95 ± 0.03 | 0.97 ± 0.03 | 1.01 ± 0.03 | 1.05 ± 0.03 | 1.09 ± 0.03 | 
C=CCC [1-butene] + C1CCOCC1 |  |  |  |  |  | activity coefficient ([1]; 250.06 K, Gas Stripping Method): 1.39 ± 0.01; activity coefficient ([1]; 270.12 K, Gas Stripping Method): 1.39 ± 0.01; activity coefficient ([1]; 289.97 K, Gas Stripping Method): 1.38 ± 0.01; activity coefficient ([1]; 309.98 K, Gas Stripping Method): 1.38 ± 0.01; activity coefficient ([1]; 329.97 K, Gas Stripping Method): 1.38 ± 0.01
CC(C)C [2-methylpropane] + C1CCOCC1 | 2.14 ± 0.1 | 2.04 ± 0.09 | 1.94 ± 0.09 | 1.88 ± 0.08 | 1.82 ± 0.08 | 
C=C(C)C [2-methylpropene] + C1CCOCC1 | 1.39 ± 0.05 | 1.39 ± 0.05 | 1.38 ± 0.05 | 1.38 ± 0.05 | 1.37 ± 0.05 | 
C/C=C/C [(E)-2-butene] + C1CCOCC1 | 1.43 ± 0.05 | 1.41 ± 0.05 | 1.4 ± 0.05 | 1.4 ± 0.05 | 1.4 ± 0.05 | 
C/C=C\C [(Z)-2-butene] + C1CCOCC1 |  |  |  | 1.31 ± 0.05 |  | activity coefficient ([1]; 250 K, Chromatography): 1.36 ± 0.05; activity coefficient ([1]; 270.07 K, Chromatography): 1.33 ± 0.05; activity coefficient ([1]; 289.98 K, Chromatography): 1.32 ± 0.05; activity coefficient ([1]; 330 K, Chromatography): 1.32 ± 0.05
CCCC [butane] + C1CCOCC1 | 2.04 ± 0.09 | 1.94 ± 0.09 | 1.85 ± 0.08 | 1.78 ± 0.08 | 1.72 ± 0.07 | 
CCCl [chloroethane] + C1CCOCC1 |  |  |  | 0.94 ± 0.03 |  | activity coefficient ([1]; 250 K, Chromatography): 0.9 ± 0.03; activity coefficient ([1]; 270.07 K, Chromatography): 0.89 ± 0.03; activity coefficient ([1]; 289.98 K, Chromatography): 0.89 ± 0.03; activity coefficient ([1]; 330 K, Chromatography): 0.98 ± 0.03
COC [dimethyl ether] + C1CCOCC1 |  |  |  | 1.26 ± 0.04 |  | activity coefficient ([1]; 250 K, Chromatography): 1.29 ± 0.04; activity coefficient ([1]; 270.07 K, Chromatography): 1.26 ± 0.04; activity coefficient ([1]; 289.98 K, Chromatography): 1.26 ± 0.04; activity coefficient ([1]; 330 K, Chromatography): 1.26 ± 0.04
CCCCCC [hexane] + C1CCOCC1 |  |  |  | 1.67 ± 0.07 |  | activity coefficient ([1]; 290 K, Chromatography): 1.76 ± 0.07; activity coefficient ([1]; 299.89 K, Chromatography): 1.71 ± 0.07; activity coefficient ([1]; 319.99 K, Chromatography): 1.65 ± 0.07; activity coefficient ([1]; 330.02 K, Chromatography): 1.61 ± 0.06
CCC [propane] + C1CCOCC1 | 2.08 ± 0.09 | 1.98 ± 0.09 | 1.9 ± 0.08 | 1.84 ± 0.08 | 1.79 ± 0.08 | 
C=CC [propene] + C1CCOCC1 | 1.42 ± 0.05 | 1.42 ± 0.05 | 1.43 ± 0.05 | 1.44 ± 0.05 | 1.44 ± 0.05 | 
C1CCOCC1 [tetrahydropyran] |  |  |  |  |  | vapor or sublimation pressure ([2]; 257.96 K): 0.98 ± 0.01 kPa; vapor or sublimation pressure ([2]; 260.07 K): 1.13 ± 0.01 kPa; vapor or sublimation pressure ([2]; 270.28 K): 2.16 ± 0.02 kPa; vapor or sublimation pressure ([2]; 279.82 K): 3.7 ± 0.02 kPa; vapor or sublimation pressure ([2]; 289.94 K): 6.28 ± 0.02 kPa; vapor or sublimation pressure ([2]; 290 K): 6.3 ± 0.02 kPa; vapor or sublimation pressure ([2]; 300.01 K): 10.23 ± 0.04 kPa; vapor or sublimation pressure ([2]; 332.98 K): 40 ± 0.1 kPa; vapor or sublimation pressure ([2]; 341.09 K): 53.33 ± 0.12 kPa; vapor or sublimation pressure ([2]; 347.72 K): 66.66 ± 0.15 kPa; vapor or sublimation pressure ([2]; 353.38 K): 79.99 ± 0.18 kPa; vapor or sublimation pressure ([2]; 358.37 K): 93.33 ± 0.21 kPa; vapor or sublimation pressure ([2]; 360.22 K): 98.66 ± 0.22 kPa
